# Values of other authors as cited in patent US7351724B2, “Oxadiazole ketone inhibitors of fatty acid amide hydrolase” (The Scripps Research Institute, priority 2004, dated 2008).
# Experiments:
# CREAE mice = conditions: Baker 2001; cited from earlier work
# rats [1] = conditions: Kathuria 2003; cited from earlier work
# rats [2] = conditions: cited from earlier work
# rats [3] = conditions: rat; Kathuria 2003; cited from earlier work
SMILES,spasticity (CREAE mice),efficacy in zero plus maze model of anxiety (rats [1]),analgesic efficacy/activity in hot plate test (rats [2]),analgesic efficacy in formalin test (rats [3])
CCCCCCCCCCCCCCCCS(=O)(=O)F [AM374],significantly reduce spasticity,,,
NC(=O)c1cccc(-c2cccc(OC(=O)NC3CCCCC3)c2)c1 [URB-597],,efficacy,analgesic efficacy,analgesic efficacy
